Reference: PMC6407913, “DREADD Agonist 21 Is an Effective Agonist for Muscarinic-Based DREADDs in Vitro and in Vivo” (ACS Pharmacology & Translational Science, 2018)
Positions count from the first letter of the chain named.

Key:
[1] = target: T1, hM4 (Homo sapiens, UniProt P08173); assay: whole-cell [3H]NMS competition binding; details: hM4, FlpIn CHO cells, mean (±SEM)
T1 construct: HA (hemagglutinin); expressed in transfected cells
T1 sequence (P08173 1-479): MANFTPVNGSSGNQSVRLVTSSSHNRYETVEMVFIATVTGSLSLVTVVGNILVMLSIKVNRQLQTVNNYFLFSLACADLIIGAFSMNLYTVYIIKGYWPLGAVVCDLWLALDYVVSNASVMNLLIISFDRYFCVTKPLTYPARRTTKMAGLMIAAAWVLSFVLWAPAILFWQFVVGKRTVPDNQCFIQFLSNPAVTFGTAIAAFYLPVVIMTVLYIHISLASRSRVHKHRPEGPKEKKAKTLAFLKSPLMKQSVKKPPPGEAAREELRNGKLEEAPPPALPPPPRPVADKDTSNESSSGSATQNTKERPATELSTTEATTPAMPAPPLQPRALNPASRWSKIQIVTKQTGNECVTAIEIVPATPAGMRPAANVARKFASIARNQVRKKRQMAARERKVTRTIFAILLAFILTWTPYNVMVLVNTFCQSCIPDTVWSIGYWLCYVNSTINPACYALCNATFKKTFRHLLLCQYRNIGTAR

[2] = target: dopamine D2 receptors (Homo sapiens, UniProt P14416); assay: cAMP signaling concentration-response, agonist mode; type: cell-based
Sequence of dopamine D2 receptors (P14416 whole entry): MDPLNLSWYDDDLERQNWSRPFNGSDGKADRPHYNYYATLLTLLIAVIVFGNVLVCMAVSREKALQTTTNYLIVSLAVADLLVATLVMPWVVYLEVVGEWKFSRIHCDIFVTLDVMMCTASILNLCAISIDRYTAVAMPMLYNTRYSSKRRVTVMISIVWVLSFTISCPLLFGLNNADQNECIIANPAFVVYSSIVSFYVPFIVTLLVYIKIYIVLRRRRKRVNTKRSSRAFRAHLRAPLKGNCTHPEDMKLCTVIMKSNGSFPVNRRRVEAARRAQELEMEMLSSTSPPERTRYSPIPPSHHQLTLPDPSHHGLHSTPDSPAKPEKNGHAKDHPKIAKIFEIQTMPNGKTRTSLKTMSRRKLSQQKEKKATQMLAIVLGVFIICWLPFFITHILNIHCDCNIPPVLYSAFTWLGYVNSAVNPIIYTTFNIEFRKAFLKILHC
Description: (§1) HEK293 T cells were used for transient transfections and Gi mediated cAMP production assays. Assays were performed according to published procedures (PMID25895059, PRESTO-Tango paper). More detailed assay protocols are available at NIMH PDSP Web site (http://pdspdb.unc.edu/pdspWeb/?site=assays).

[3] = target: dopamine D3 receptors (Homo sapiens, UniProt P35462); assay: as above; type: cell-based
Sequence of dopamine D3 receptors (P35462 whole entry): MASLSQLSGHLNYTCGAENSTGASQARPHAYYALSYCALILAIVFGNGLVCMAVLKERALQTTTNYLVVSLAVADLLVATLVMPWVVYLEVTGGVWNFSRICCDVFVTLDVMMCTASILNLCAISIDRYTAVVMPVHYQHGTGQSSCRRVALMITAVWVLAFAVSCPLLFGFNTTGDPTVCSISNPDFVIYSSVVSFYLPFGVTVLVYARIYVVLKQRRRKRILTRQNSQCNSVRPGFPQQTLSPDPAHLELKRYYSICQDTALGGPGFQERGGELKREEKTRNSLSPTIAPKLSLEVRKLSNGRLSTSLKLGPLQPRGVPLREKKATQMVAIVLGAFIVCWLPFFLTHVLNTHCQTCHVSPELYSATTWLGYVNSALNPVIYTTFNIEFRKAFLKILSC
Description: as §1

[4] = target: T2, histamine H4 receptors (Homo sapiens, UniProt Q9H3N8); assay: as above; type: cell-based
T2 construct: expressed in transfected cells; host or cells: HEK293T, transient
T2 sequence (Q9H3N8 whole entry): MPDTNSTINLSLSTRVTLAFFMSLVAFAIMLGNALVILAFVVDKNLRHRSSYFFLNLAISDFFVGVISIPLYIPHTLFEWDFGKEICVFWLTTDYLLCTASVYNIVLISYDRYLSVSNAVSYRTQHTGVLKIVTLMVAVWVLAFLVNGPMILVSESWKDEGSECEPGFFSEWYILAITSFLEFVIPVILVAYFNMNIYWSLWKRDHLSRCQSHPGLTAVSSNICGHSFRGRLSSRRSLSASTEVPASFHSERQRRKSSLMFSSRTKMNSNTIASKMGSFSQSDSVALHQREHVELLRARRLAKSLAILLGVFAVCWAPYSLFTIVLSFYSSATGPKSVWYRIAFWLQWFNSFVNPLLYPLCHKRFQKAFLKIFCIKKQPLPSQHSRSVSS
Description: as §1

[5] = target: D1 (Homo sapiens, UniProt P21728); assay: cAMP Glo-sensor assay, antagonist mode; type: cell-based; details: human D1, HEK293T cells, vs dopamine
Sequence of D1 (P21728 whole entry): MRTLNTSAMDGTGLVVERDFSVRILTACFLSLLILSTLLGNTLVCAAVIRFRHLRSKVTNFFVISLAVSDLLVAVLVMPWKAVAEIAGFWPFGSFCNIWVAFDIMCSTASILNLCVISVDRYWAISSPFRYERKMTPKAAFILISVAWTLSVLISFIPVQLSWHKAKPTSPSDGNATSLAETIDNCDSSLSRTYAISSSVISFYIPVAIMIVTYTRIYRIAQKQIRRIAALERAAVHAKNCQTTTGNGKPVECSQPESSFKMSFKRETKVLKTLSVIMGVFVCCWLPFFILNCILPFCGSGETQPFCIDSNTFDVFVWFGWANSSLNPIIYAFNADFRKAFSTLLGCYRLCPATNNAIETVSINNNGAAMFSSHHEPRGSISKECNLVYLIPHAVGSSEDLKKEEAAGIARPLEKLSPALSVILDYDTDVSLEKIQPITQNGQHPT
Description: HEK293T cells in 10 cm plates were transfected with 4 μg of Glosensor and 4 μg of DNA encoding the human dopamine D1 receptor. The next day, cells were harvested and plated in polylysine-coated 384-well plates (Greiner) at a density of 20 000 cells/well in DMEM containing 1% dFBS. The next day, media was aspirated from each well and replaced with 20 μL of assay buffer containing 4 mM luciferin. Then, 10 μL of drugs were added 30 min later, and plates were read after 15 min.
In the absence of C21 ([B] = 0), this equation becomes the standard four-parameter logistic equation for fitting agonist concentration–response data.

[6] = brain protein binding (brain homogenate); type: in vitro ADME, mouse
[7] = system: hM3Dq-expressing lateral hypothalamic vGAT neurons; assay: recordings from lateral hypothalamic vGAT neurons; type: cell-based
[8] = target: T3, hM4Di (Homo sapiens, UniProt P08173, A203G/Y113C); assay: ERK1/2 phosphorylation (pERK1/2) assay
T3 sequence (P08173 1-479 Y113C/A203G): T1 sequence (P08173 1-479) with Y113C, A203G

Structure (SMILES): c1ccc2c(c1)N=C(N1CCNCC1)c1ccccc1N2 [C21, 11-(1-piperazinyl)-5H-dibenzo[b,e][1,4]diazepine]
- Ki [1]: 3.63 µM
- agonist activity, follow-up concentration-response (cAMP) [2]: minimal activity
- agonist activity, follow-up concentration-response (cAMP) [3]: minimal activity
- agonist activity, follow-up concentration-response (cAMP) [4]: minimal activity
- antagonist activity, cAMP assay [5]: antagonism
- unbound in brain ([6]; brain): 4.9%
- fraction unbound ([6]; mouse, brain homogenate): 0.05
- depolarization of neurons [7]: depolarization
- EC50 [8]: 0.017 µM
